The values below come from patent US20230382940A1, “ANTIVIRAL COMPOUNDS AND METHODS OF MAKING AND USING THE SAME” (Gilead Sciences, Inc., priority 2022, published 2023).

The structures appear in SMILES notation.

Series [1] deals with Respiratory syncytial virus recombinant with luciferase (RSV-Luc5). As to the kind of experiment: NHBE RSV-Luc5 384-well assay (EC50 RSVFLUC NHBE-384 v2), Example W. It counts as cell-based. To be noted: human respiratory syncytial virus, 72 h, read-out: EC50 RSV FLUC NHBE 384 V2 (per Ex. W). The text has this:
Example W: NHBE RSV-Luc5 384-Well Assay (EC50 RSVFLUC NHBE-384 v2)
Normal Human Bronchial Epithelial (NHBE) cells were purchased from Lonza (Walkersville, MD Cat #CC2540) and maintained in BEGM Bronchial Epithelial Cell Growth Medium BulletKit (Lonza CC-3170).
Cells were thawed, expanded, and were used for experiments at passage 2. Respiratory syncytial virus recombinant with luciferase (RSV-Luc5) (≥1×10^7 Infectious Units/mL (IU/mL) determined by TCID50) was purchased from Microbiologics (Saint Cloud, MN). Viral replication was determined in NHBE cells in the following manner.
Compounds are prepared in 100% DMSO in 384-well polypropylene plates (Greiner, Monroe, NC, Cat #784201) with 8 compounds per plate in grouped replicates of 4 at 10 serially diluted concentrations (1:3). The serially diluted compounds were transferred to low dead volume Echo plates (Labcyte, Sunnyvale, CA, Cat #LP-0200).
The test compounds were spotted to 384-well assay plates (Greiner, Monroe, NC, Cat #781091) at 200 nL per well using an Echo acoustic dispenser (Labcyte, Sunnyvale, CA). NHBE cells were harvested and suspended in BEGM Bronchial Epithelial Cell Growth Medium BulletKit and seeded to the pre-spotted assay plates at 5,000 cells per well in 30 μL. RSV-Luc5 virus was diluted in BEGM Bronchial Epithelial Cell Growth Medium BulletKit at 500,000 Infectious Units (IU) per mL and 10 μL per well was added to the assay plates containing cells and compounds, for an MOI of 1. The assay plates were incubated for 3 days at 37° C. and 5% CO2. At the end of incubation, One-Glo reagent (Promega, Madison, WI, Cat #E6120) was prepared. The assay plates and One-Glo reagent were equilibrated to room temperature for at least 15 minutes. 40 μL per well of One-Glo reagent was added and the plates were incubated at room temperature for 15 minutes before reading the luminescence signal on an EnVision multimode plate reader (Perkin Elmer, Waltham, MA). Remdesivir was used as positive control and DMSO was used as negative control. Values were normalized to the positive and negative controls (as 0% and 100% replication, respectively) and data was fitted using non-linear regression analysis by Gilead's dose response tool. The EC50 value for each compound was defined as the concentration reducing the viral replication by 50%.

A short description of series [2]: GI S9 stability, rat, Example Y. It counts as in vitro ADME. Particulars: pooled intestinal S9 fractions; rat intestinal S9, 1.0 mg/mL protein, 2 μM compound, pH 7.4; read-out: GIS9 Rat T½ (per Ex. Y). The method, then: (§1) Example Y: GI S9 Stability Data
(§2) Stock solutions of test compounds in dimethyl sulfoxide (DMSO) having a final concentration of 10 mM were prepared and used in all experiments. Sekisui XenoTech (Kansas City, KS) provided pooled intestinal S9 fractions. All other chemicals were purchased from Sigma-Aldrich (St. Louis, MO) or VWR (West Chester, PA). Internal Standard/Quench (IS/Q) used to stop reactions was 100 nM labetalol in (by volume) methanol (10%) and acetonitrile (90%).
(§3) Stability in Intestinal S9 Fractions: Duplicate aliquots of test compound or positive control substrate were added to S9 stock diluted with phosphate buffered saline (137 mM NaCl, 2.7 mM KCl, 10 mM phosphate buffer), pH 7.4, to obtain a protein concentration of 1.0 mg/mL. The metabolic reactions were initiated by the addition of the substrates to the S9 reaction mixture to a final concentration of 2 μM. At 0, 10, 20, 30, 60 and 120 min, 25 μL aliquots of the reaction mixture were transferred to plates containing 225 μl of IS/Q solution. After quenching, the plates were centrifuged at 3000×g for 30 minutes. 150 μL aliquots of each supernatant were dried down then reconstituted with 300 μL water. Aliquots (10 μL) of the prepared samples were analyzed on a Thermo Q-Exactive mass spectrometer as described below.
(§4) Liquid Chromatography—Mass Spectrometry: Quantification of test compounds and control substrate was performed by analyte/internal standard peak area ratio (PAR) values measured on a Thermo Q-Exactive mass spectrometer coupled to a Dionex UltiMate 3000 HPLC with a Leap Technologies HTC PAL autosampler. The column used for analysis was a Waters Acquity BEH C18 (1.7 μm particle size, 2.1×50 mm). Mobile phase A consisted of 0.1% (v/v) formic acid in water. Mobile phase B consisted of 0.1% (v/v) formic acid in acetonitrile. Elution of analytes was achieved by a series of linear gradients varying the proportions of A and B. The mass spectrometer was calibrated on a weekly basis and mass tolerance of 5 ppm was used.
(§5) Metabolic stabilities in S9 fractions were determined by measuring the rates of disappearance of test compound and positive control substrate.
(§6) Data (% of substrate remaining) were plotted on a semi-log scale and fitted using an exponential decline model:
(§7) Ct=C0×e^−ln2/T1/2×t • Where Ct—% of substrate remaining at time=t; C0—% of substrate remaining at time=0; t—time; T1/2—half-life. • The Half-life (T1/2) is determined by the following equation: […]
(§8) Assuming a first-order reaction, the slope (k) is extrapolated from the aforementioned plotted data.

A short description of series [3]: GI S9 stability, human, Example Y. Particulars: pooled intestinal S9 fractions; human intestinal S9, 1.0 mg/mL protein, 2 μM compound, pH 7.4; read-out: GIS9 Human T½ (per Ex. Y). It counts as in vitro ADME. The protocol:
as §1, §2, §3, §4, §5, §6, §7, §8

Take `N#C[C@]1(COC(=O)OC2CCCC2)O[C@@H](c2ccc3c(N)ncnn23)[C@H](O)[C@@H]1O` [Compound 1, ((2R,3S,4R,5S)-5-(4-aminopyrrolo[2,1-f][1,2,4]triazin-7-yl)-2-cyano-3,4-dihydroxytetrahydrofuran-2-yl)methyl cyclopentyl carbonate]: in series [1], the EC50 came out at 12.8 µM. The half-life at 2 μM was determined as 6 min in series [2] and 31 min in series [3].

For the compound `N#C[C@]1(COC(=O)O[C@H]2CCOC2)O[C@@H](c2ccc3c(N)ncnn23)[C@H](O)[C@@H]1O` [Compound 33, ((2R,3S,4R,5S)-5-(4-aminopyrrolo[2,1-f][1,2,4]triazin-7-yl)-2-cyano-3,4-dihydroxytetrahydrofuran-2-yl)methyl ((S)-tetrahydrofuran-3-yl) carbonate], the EC50 in series [1] is 8.01 µM. For the same compound, the half-life at 2 μM in series [2] was 58 min; in series [3], 250 min.

As to `N#C[C@]1(COC(=O)OCC2CCCC2)O[C@@H](c2ccc3c(N)ncnn23)[C@H](O)[C@@H]1O` [Compound 30, ((2R,3S,4R,5S)-5-(4-aminopyrrolo[2,1-f][1,2,4]triazin-7-yl)-2-cyano-3,4-dihydroxytetrahydrofuran-2-yl)methyl (cyclopentylmethyl) carbonate], the 50% effective concentration (EC50) in series [1] turned out to be 7.54 µM. Also, the half-life at 2 μM in series [2] stood at 3 min; in series [3] it was 15 min.

For the compound `CCC(CC)COC(=O)OC[C@@]1(C#N)O[C@@H](c2ccc3c(N)ncnn23)[C@H](O)[C@@H]1O` [Compound 31, ((2R,3S,4R,5S)-5-(4-aminopyrrolo[2,1-f][1,2,4]triazin-7-yl)-2-cyano-3,4-dihydroxytetrahydrofuran-2-yl)methyl (2-ethylbutyl) carbonate], the EC50 in series [1] came to 8.65 µM. The half-life at 2 μM in series [2] amounted to 3 min; in series [3] it was 18 min.

As to `CC(C)COC(=O)OC[C@@]1(C#N)O[C@@H](c2ccc3c(N)ncnn23)[C@@H]2OC(=O)O[C@@H]21` [Compound 15, ((3aS,4R,6S,6aS)-6-(4-aminopyrrolo[2,1-f][1,2,4]triazin-7-yl)-4-cyano-2-oxotetrahydrofuro[3,4-d][1,3]dioxol-4-yl)methyl isobutyl carbonate], the EC50 in series [1] was determined as 11.4 µM. Moreover, the half-life at 2 μM was 2 min in series [2] and 1 min in series [3].

Consider `N#C[C@]1(COC(=O)OC2CCC2)O[C@@H](c2ccc3c(N)ncnn23)[C@H](O)[C@@H]1O` [Compound 17, ((2R,3S,4R,5S)-5-(4-aminopyrrolo[2,1-f][1,2,4]triazin-7-yl)-2-cyano-3,4-dihydroxytetrahydrofuran-2-yl)methyl cyclobutyl carbonate], for which the EC50 in series [1] came to 5.96 µM. The results for the half-life at 2 μM in series [2] and in series [3] were 7 min and 29 min, respectively.

On to `CC(C)COC(=O)Nc1ncnn2c([C@@H]3O[C@](C#N)(CO)[C@@H](O)[C@H]3O)ccc12` [Compound 16, Isobutyl (7-((2S,3R,4S,5R)-5-cyano-3,4-dihydroxy-5-(hydroxymethyl)tetrahydrofuran-2-yl)pyrrolo[2,1-f][1,2,4]triazin-4-yl)carbamate], for which the EC50 in series [1] was determined as 50 µM. The half-life at 2 μM in series [2] and in series [3] was 789 min each time.

Take `N#C[C@]1(COC(=O)OCC2CC2)O[C@@H](c2ccc3c(N)ncnn23)[C@H](O)[C@@H]1O` [Compound 32, ((2R,3S,4R,5S)-5-(4-aminopyrrolo[2,1-f][1,2,4]triazin-7-yl)-2-cyano-3,4-dihydroxytetrahydrofuran-2-yl)methyl (cyclopropylmethyl) carbonate]: the EC50 in series [1] came to 7.12 µM. The half-life at 2 μM in series [2] was 8 min; in series [3], 33 min.

For the compound `CCCOCCOC(=O)OC[C@@]1(C#N)O[C@@H](c2ccc3c(N)ncnn23)[C@H](O)[C@@H]1O` [Compound 34, ((2R,3S,4R,5S)-5-(4-aminopyrrolo[2,1-f][1,2,4]triazin-7-yl)-2-cyano-3,4-dihydroxytetrahydrofuran-2-yl)methyl (2-propoxyethyl) carbonate], the EC50 in series [1] was 6.39 µM. Also, the half-life at 2 μM in series [2] came out at 11 min; in series [3] it was 108 min.

On to `CCCCCOC(=O)OC[C@@]1(C#N)O[C@@H](c2ccc3c(N)ncnn23)[C@H](O)[C@@H]1O` [Compound 20, ((2R,3S,4R,5S)-5-(4-aminopyrrolo[2,1-f][1,2,4]triazin-7-yl)-2-cyano-3,4-dihydroxytetrahydrofuran-2-yl)methyl pentyl carbonate], for which the concentration for a half-maximal effect (EC50) in series [1] came to 7.51 µM. The half-life at 2 μM in series [2] was 3 min; in series [3], 16 min.

For `CCC(CC)OC(=O)OC[C@@]1(C#N)O[C@@H](c2ccc3c(N)ncnn23)[C@H](O)[C@@H]1O` [Compound 14, ((2R,3S,4R,5S)-5-(4-aminopyrrolo[2,1-f][1,2,4]triazin-7-yl)-2-cyano-3,4-dihydroxytetrahydrofuran-2-yl)methyl pentan-3-yl carbonate], in series [1], the concentration for a half-maximal effect (EC50) stood at 14.9 µM. For the same compound, the half-life at 2 μM was 16 min in series [2] and 104 min in series [3].

As for `N#C[C@]1(COC(=O)OC2CCOCC2)O[C@@H](c2ccc3c(N)ncnn23)[C@H](O)[C@@H]1O` [Compound 12, ((2R,3S,4R,5S)-5-(4-aminopyrrolo[2,1-f][1,2,4]triazin-7-yl)-2-cyano-3,4-dihydroxytetrahydrofuran-2-yl)methyl (tetrahydro-2H-pyran-4-yl) carbonate], the EC50 in series [1] stood at 8.88 µM. In addition, the half-life at 2 μM in series [2] came out at 58 min; in series [3] it was 789 min.

Turning to `N#C[C@]1(COC(=O)O[C@@H]2C[C@@H]3C[C@@H]3C2)O[C@@H](c2ccc3c(N)ncnn23)[C@H](O)[C@@H]1O` [Compound 39, ((2R,3S,4R,5S)-5-(4-aminopyrrolo[2,1-f][1,2,4]triazin-7-yl)-2-cyano-3,4-dihydroxytetrahydrofuran-2-yl)methyl ((1R,3r,5S)-bicyclo[3.1.0]hexan-3-yl) carbonate], the EC50 in series [1] came to 7.84 µM. For the same compound, the half-life at 2 μM in series [2] amounted to 7 min; in series [3], 27 min.

As to `N#C[C@]1(COC(=O)OC2CC2)O[C@@H](c2ccc3c(N)ncnn23)[C@H](O)[C@@H]1O` [Compound 23, ((2R,3S,4R,5S)-5-(4-aminopyrrolo[2,1-f][1,2,4]triazin-7-yl)-2-cyano-3,4-dihydroxytetrahydrofuran-2-yl)methyl cyclopropyl carbonate], the EC50 in series [1] was determined as 7.79 µM. The half-life at 2 μM in series [2] turned out to be 9 min; in series [3] it was 19 min.
